This passage reports T/C results from PubChem BioAssay AID330 (DTP/NCI, 2004).

This assay concerns P388 leukemia ip, CD2F1 mice, survival T/C. Nature of the assay: NCI In Vivo Anticancer Drug Screen. Data for tumor model P388 Leukemia (intraperitoneal) in CD2F1 (CDF1) mice. The following applies: endpoint: median survival time, higher = longer survival. In a few lines: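 Mice carrying the transplanted tumor received test compound or vehicle. Survival was recorded in each group, and the value is the treated-group measurement divided by that of the vehicle-treated control group.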

Setting [1] is: dose: 25.0 mg/kg/injection, schedule: Q01DX009 (ip), vehicle: saline.
The mark [2] stands for this setting: dose: 50.0 mg/kg/injection, schedule: Q01DX009 (ip), vehicle: saline with Tween-80.
Setting [3] is: dose: 100.0 mg/kg/injection, schedule: Q01DX009 (ip), vehicle: saline with Tween-80.
Setting [4] is: dose: 200.0 mg/kg/injection, schedule: Q01DX009 (ip), vehicle: saline with Tween-80.
The mark [5] stands for this setting: dose: 12.5 mg/kg/injection, schedule: Q01DX009 (ip), vehicle: saline with Tween-80.
Setting [6] is: dose: 25.0 mg/kg/injection, schedule: Q01DX009 (ip), vehicle: saline with Tween-80.
The mark [7] stands for this setting: dose: 50.0 mg/kg/injection, schedule: Q01DX005 (ip), vehicle: saline with Tween-80.
The mark [8] stands for this setting: dose: 100.0 mg/kg/injection, schedule: Q01DX005 (ip), vehicle: saline with Tween-80.
Where [9] appears, read: dose: 200.0 mg/kg/injection, schedule: Q01DX005 (ip), vehicle: saline with Tween-80.
Where [10] appears, read: dose: 100.0 mg/kg/injection, schedule: Q04DX003 (ip), vehicle: saline with Tween-80.
Where [11] appears, read: dose: 200.0 mg/kg/injection, schedule: Q04DX003 (ip), vehicle: saline with Tween-80.
[12] abbreviates: dose: 400.0 mg/kg/injection, schedule: Q04DX003 (ip), vehicle: saline with Tween-80.
Setting [13] is: dose: 50.0 mg/kg/injection, schedule: Q01DX005 (ip), vehicle: Klucel (hydroxypropylcellulose) (HPC).
Where [14] appears, read: dose: 100.0 mg/kg/injection, schedule: Q01DX005 (ip), vehicle: Klucel (hydroxypropylcellulose) (HPC).

Values joined by “and” are separate entries in the source; they are usually repeats but may differ in a detail not shown here. Identical values can stand only once. Inconclusive results and toxic doses are left out.

For the compound `NC1=NCN(C2OC(CO)C(O)C2O)C(=O)N1` (configuration not stated), the T/C (dose: 3.12 mg/kg/injection, schedule: Q01DX009 (ip), vehicle: saline) is 110 % of control; the T/C (dose: 3.13 mg/kg/injection, schedule: Q01DX009 (ip), vehicle: saline) is 120 % of control; the T/C (dose: 25.0 mg/kg/injection, schedule: Q01DX005 (iv), vehicle: saline) was 118 % of control; the T/C under setting [1] was 150 % of control and 159 % of control; the T/C (dose: 50.0 mg/kg/injection, schedule: Q01DX005 (ip), vehicle: saline) was 150 % of control; the T/C (dose: 120.0 mg/kg/injection, schedule: Q01DX009 (ip), vehicle: saline) is 190 % of control. Moreover, the T/C is 199 % of control and 203 % of control (dose: 140.0 mg/kg/injection, schedule: Q01DX009 (ip), vehicle: saline); 200 % of control (dose: 160.0 mg/kg/injection, schedule: Q01DX009 (ip), vehicle: saline); 184 % of control (dose: 200.0 mg/kg/injection, schedule: Q01DX005 (ip), vehicle: saline); 88 % of control and 90 % of control (dose: 400.0 mg/kg/injection, schedule: Q01DX009 (ip), vehicle: saline).
`CCOC(=O)C(CCC(C)(C)SCc1ccccc1)(NC(C)=O)C(=O)OCC`: the T/C by setting is: under setting [2], 91 % of control; under setting [3], 91 % of control; under setting [4], 86 % of control.
As for `CCCCCCCCCCCCCCCC(=O)NC(CCCCN)C(=O)NC(CCCCN)C(=O)OCC` (configuration not stated), the T/C reads like this: under setting [5], 101 % of control; under setting [6], 106 % of control.
Consider `Cc1nc(N)c2c3c(sc2n1)CCCC3`, for which the T/C runs as follows: under setting [7], 95 % of control; under setting [8], 97 % of control; under setting [9], 100 % of control.
Turning to `CCOC(=O)CCC(C)(C#N)c1ccccc1` (configuration not stated), the T/C is 94 % of control under setting [5], 99 % of control under setting [6], 103 % of control under setting [2] and 87 % of control under setting [3].
For the compound `COc1ccc2c(c1OC)C(=O)O/C2=C\c1cc2c(cc1CCN(C)C)OCO2`, the T/C by setting is: (dose: 12.5 mg/kg/injection, schedule: Q01DX001 (ip), vehicle: saline + alcohol) 99 % of control; (dose: 25.0 mg/kg/injection, schedule: Q01DX001 (ip), vehicle: saline + alcohol) 98 % of control; (dose: 50.0 mg/kg/injection, schedule: Q01DX001 (ip), vehicle: saline + alcohol) 99 % of control.
As to `[CH3][Sn]([c]1ccccc1)([c]1cccc2ccccc12)[c]1cccc2ccccc12`, the T/C is 89 % of control under setting [10], 91 % of control under setting [11] and 88 % of control under setting [12].
In the case of `COc1ccc(CCNC(=O)c2cc3ccccc3oc2=O)cc1OC`, the T/C is 94 % of control under setting [2], 96 % of control under setting [3] and 97 % of control under setting [4].
In the case of `COc1cc([C@H]2c3c(cc(OC)c(OC)c3OC)CC3COC(=O)[C@@H]32)cc2c1OCO2` (some centres not stated), the T/C is 98 % of control (dose: 60.0 mg/kg/injection, schedule: Q01DX005 (ip), vehicle: saline with Tween-80); 92 % of control (dose: 120.0 mg/kg/injection, schedule: Q01DX005 (ip), vehicle: saline with Tween-80); 90 % of control (dose: 240.0 mg/kg/injection, schedule: Q01DX005 (ip), vehicle: saline with Tween-80).
`NCCCSc1ccccc1`: the T/C is 99 % of control (dose: 60.0 mg/kg/injection, schedule: Q01DX005 (ip), vehicle: saline) and 97 % of control (dose: 120.0 mg/kg/injection, schedule: Q01DX005 (ip), vehicle: saline).
For `CCC1CN2C(=N1)c1ccccc1-c1cc(Cl)ccc12` (configuration not stated), the T/C was 106 % of control (dose: 5.0 mg/kg/injection, schedule: Q01DX009 (ip), vehicle: saline); 101 % of control and 102 % of control and 90 % of control (dose: 6.25 mg/kg/injection, schedule: Q01DX009 (ip), vehicle: saline); 121 % of control and 124 % of control (dose: 10.0 mg/kg/injection, schedule: Q01DX009 (ip), vehicle: saline); 103 % of control and 106 % of control and 97 % of control (dose: 12.5 mg/kg/injection, schedule: Q01DX009 (ip), vehicle: saline); 117 % of control (dose: 20.0 mg/kg/injection, schedule: Q01DX009 (ip), vehicle: saline); 101 % of control (2×) and 108 % of control under setting [1]. In addition, the T/C is 156 % of control (dose: 40.0 mg/kg/injection, schedule: Q01DX009 (ip), vehicle: saline); 103 % of control and 123 % of control and 94 % of control (dose: 50.0 mg/kg/injection, schedule: Q01DX009 (ip), vehicle: saline).
For the compound `Cc1nc2[nH]c(=O)ccc2c(C)c1N`, the T/C reads like this: (dose: 25.0 mg/kg/injection, schedule: Q04DX002 (ip), vehicle: saline with Tween-80) 103 % of control; (dose: 50.0 mg/kg/injection, schedule: Q04DX002 (ip), vehicle: saline with Tween-80) 110 % of control; (dose: 100.0 mg/kg/injection, schedule: Q04DX002 (ip), vehicle: saline with Tween-80) 100 % of control.
Consider `Cc1ccccc1N=C1SCC(=O)N1c1ccccc1C`, for which the T/C is, setting by setting: under setting [7], 96 % of control; under setting [8], 99 % of control; under setting [9], 91 % of control.
In the case of `CC(=N\[O-])/C(C)=N/O.CC(=N\[O-])/C(C)=N/O.CC(=O)[O-].CC(=O)[O-].O.[Rh+2].[Rh+2]`, the T/C is, setting by setting: (dose: 6.25 mg/kg/injection, schedule: Q01DX009 (ip), vehicle: saline with Tween-80) 123 % of control; under setting [5], 119 % of control.
For the compound `C=CS(C=C)=NS(=O)(=O)c1ccc(C)cc1`, the T/C (dose: 6.25 mg/kg/injection, schedule: Q01DX009 (ip), vehicle: other) was 107 % of control and 110 % of control and 120 % of control; the T/C (dose: 12.5 mg/kg/injection, schedule: Q01DX009 (ip), vehicle: other) is 107 % of control and 118 % of control and 120 % of control; the T/C (dose: 25.0 mg/kg/injection, schedule: Q01DX009 (ip), vehicle: other) was 117 % of control.
`CN(C)c1nc(N/N=C/c2ccc([N+](=O)[O-])cc2)nc(N(C)C)n1`: the T/C under setting [10] was 98 % of control, the T/C under setting [11] is 105 % of control and the T/C under setting [12] is 93 % of control.
Regarding `O=C1OC(C(Cl)(Cl)Cl)Nc2ccccc21` (configuration not stated), the T/C under setting [13] was 111 % of control and the T/C under setting [14] was 111 % of control.
Regarding `COc1cccc2c1NC(O)c1cccn1C2=O` (configuration not stated), the T/C reads like this: (dose: 0.1 mg/kg/injection, schedule: Q01DX005 (ip), vehicle: water) 93 % of control; (dose: 0.2 mg/kg/injection, schedule: Q01DX005 (ip), vehicle: water) 93 % of control; (dose: 0.4 mg/kg/injection, schedule: Q01DX005 (ip), vehicle: water) 96 % of control; (dose: 0.8 mg/kg/injection, schedule: Q01DX005 (ip), vehicle: water) 93 % of control; (dose: 1.6 mg/kg/injection, schedule: Q01DX005 (ip), vehicle: water) 98 % of control; (dose: 5.0 mg/kg/injection, schedule: Q01DX005 (ip), vehicle: distilled water + Tween-80) 90 % of control. Moreover, the T/C by setting is: (dose: 10.0 mg/kg/injection, schedule: Q01DX005 (ip), vehicle: distilled water + Tween-80) 98 % of control; (dose: 20.0 mg/kg/injection, schedule: Q01DX005 (ip), vehicle: distilled water + Tween-80) 100 % of control; (dose: 40.0 mg/kg/injection, schedule: Q01DX005 (ip), vehicle: distilled water + Tween-80) 100 % of control; (dose: 80.0 mg/kg/injection, schedule: Q01DX005 (ip), vehicle: distilled water + Tween-80) 93 % of control.
With `COc1ccc(CCN2C(=O)CCC3=C2CCCC3=O)cc1OC`, the T/C reads like this: (dose: 25.0 mg/kg/injection, schedule: Q01DX005 (ip), vehicle: Klucel (hydroxypropylcellulose) (HPC)) 102 % of control; under setting [13], 100 % of control; under setting [14], 102 % of control; (dose: 200.0 mg/kg/injection, schedule: Q01DX005 (ip), vehicle: Klucel (hydroxypropylcellulose) (HPC)) 100 % of control.
In the case of `CC[N+](CC)=c1ccc2nc3c(cc(NCc4ccccc4)c4ccccc43)oc-2c1`, the T/C runs as follows: (dose: 12.5 mg/kg/injection, schedule: Q01DX005 (ip), vehicle: saline with Tween-80) 103 % of control; (dose: 25.0 mg/kg/injection, schedule: Q01DX005 (ip), vehicle: saline with Tween-80) 100 % of control; under setting [7], 105 % of control and 107 % of control.
